Data published in patent publication US20260097105A1, “SYSTEMS, FORMULATIONS AND METHODS FOR GENERATING UNIVERSAL PEPTIDE/MHC COMPLEXES WITH ENGINEERED DISULFIDE CONNECTING THE HEAVY AND LIGHT CHAINS” (priority 2022, published 2026).

Assays:
MR1 = molecular target: T1, MR1 (Homo sapiens, UniProt Q95460, C283S/G138C); assay: Fluorescence polarization competitive ligand binding (JYM20, DCF-loaded open MR1); settings: 10 nM JYM20; 200 nM DCF-loaded open MR1; pH 7.4
T1 construct: made in house; host or cells: Escherichia coli BL21(DE3) per the general methods
Description: To optimize fluorescence polarization (FP), a direct binding assay between JYM20 and MR1 was conducted to determine the minimum concentration of MR1 and JYM20 required for a maximal signal, as well as the buffer conditions. The FP signal is generated by polarized excitation wavelengths, resulting in depolarized emission when JYM20 is free in solution (with low FP value). […] Because DCF is not a covalent binding ligand, the DCF-loaded open MR1 and JYM20 can together screen a wide range of cancer metabolites for MR1.
Briefly, a buffer consistent of 150 mM NaCl, 20 mM sodium phosphate, 0.05% Tween-20, pH 7.4 was used since Applicants don't need nonphysiologically acidic environment to break the Schiff base. A serial dilution of cancer metabolites in a range of 60-0.06 mM, which were selected from the preliminary in silico screening, was added to 200 nM MR1 and 10 nM JYM20 in a final volume of 100 μL. The kinetic association was monitored for 16 hours, and polarization measurements were recorded every 186 seconds. Excitation and emission values used to monitor the fluorescence of TAMRA-labeled peptides were 531 and 595 nm. All experiments were performed in triplicates at room temperature. Raw parallel (III) and perpendicular emission intensities (I⊥) were collected and converted to polarization (mP) values using the equation 1000*[(III−(G*I⊥))/(III+(G*I⊥))]. An optimized G-factor was determined to be 0.33 for TAMRA-labeled peptides in calculating baseline fluorescence. Non-linear regression fitting of one phase association allowed calculating plateau polarization (mP) values for each kinetic curve. Log transformed values of each peptide concentration were plotted against the plateau mP value, and an IC50 curve was fit using log (inhibitor) vs. response (three parameters) curve from GraphPad Prism v9^9.

[1] = test system: WT or open HLA-A*29:02/FTSDYYQLY; assay: Fluorescence polarization IC50 competition assay; format: binding, human; settings: competitor vs FITCKLIDVFHQY
Text: Kinetic association measurements were collected as previously described. Non-linear regression fitting allowed calculating plateau polarization (mP) values for each kinetic curve. Log transformed values of each peptide concentration were plotted against the plateau mP value, and an IC50 curve was fit.

T1 sequence (Q95460 with tags, fused parts or gaps G138C/C283S): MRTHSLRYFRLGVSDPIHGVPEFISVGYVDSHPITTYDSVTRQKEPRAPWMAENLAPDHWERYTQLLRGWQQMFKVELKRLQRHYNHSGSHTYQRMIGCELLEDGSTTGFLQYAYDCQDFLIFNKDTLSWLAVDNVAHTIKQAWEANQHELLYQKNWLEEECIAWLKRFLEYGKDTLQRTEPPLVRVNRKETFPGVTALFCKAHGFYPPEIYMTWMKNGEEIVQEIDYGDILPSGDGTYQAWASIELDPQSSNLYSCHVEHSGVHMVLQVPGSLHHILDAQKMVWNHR
T1 sequence (as listed by the source partner): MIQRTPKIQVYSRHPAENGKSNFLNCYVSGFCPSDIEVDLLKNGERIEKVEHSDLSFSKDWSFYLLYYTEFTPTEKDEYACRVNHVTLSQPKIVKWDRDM

| Compound | relative binding affinities (IC50) to MR1 (MR1) | IC50, open compared to WT [1] |
| --- | --- | --- |
| O=C(O)Cc1ccccc1Nc1c(Cl)cccc1Cl [DCF, diclofenac, reference compound] | low-millimolar |  |
| ALIDVFHQY |  | same IC50 |
| O=C(O)C1=C[C@@H](O)[C@@H](O)[C@H](O)C1 [SKA, shikimic acid] | low-millimolar |  |
| O=C(O)C1=CC(=O)[C@@H](O)[C@H](O)C1 [3DA, 3-Dehydroshikimic acid] | low-millimolar |  |
| O=c1ccn([C@@H]2O[C@H](COP(=O)(O)O)[C@@H](O)[C@H]2O)c(=O)[nH]1 [UMP, Uridine 5′-monophosphate] | low-millimolar |  |
